Assay results reported in patent US11512090B2, “Muscarinic acetylcholine M1 receptor antagonists” (PIPELINE THERAPEUTICS, INC., priority 2018, dated 2022).
Read-outs that look alike come from different tables or passages of the source.

Assays:
Format in all cases: cell-based
[1] = molecular target: T1, human M1 receptor (Homo sapiens, UniProt P11229); experiment: In vitro functional assay of muscarinic acetylcholine receptor activity (aequorin calcium flux, antagonist mode vs EC80 acetylcholine), M1
T1 sequence (P11229 1-460): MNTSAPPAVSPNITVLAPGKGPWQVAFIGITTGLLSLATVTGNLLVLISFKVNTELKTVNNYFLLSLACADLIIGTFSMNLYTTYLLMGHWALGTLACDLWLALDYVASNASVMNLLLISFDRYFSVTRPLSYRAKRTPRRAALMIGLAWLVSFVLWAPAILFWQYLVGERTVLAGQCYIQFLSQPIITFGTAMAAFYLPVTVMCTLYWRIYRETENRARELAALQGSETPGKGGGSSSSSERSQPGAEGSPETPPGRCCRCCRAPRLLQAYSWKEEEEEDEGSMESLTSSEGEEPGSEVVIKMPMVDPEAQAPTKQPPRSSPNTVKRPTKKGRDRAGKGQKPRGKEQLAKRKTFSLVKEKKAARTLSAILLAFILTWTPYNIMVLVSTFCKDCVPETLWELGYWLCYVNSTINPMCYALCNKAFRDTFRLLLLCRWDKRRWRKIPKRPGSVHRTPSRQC
Description: (§1) CHO-K1 cells stably expressing human M1 receptor with Aequorin (Perkin Elmer) were grown in F12 media, 10% FBS with 0.4 mg/mL geneticin and […]. Cells were grown to confluence and frozen down to be assayed at a later date. On the day of the experiment cells were thawed in a 37° C. water bath, resuspended in DMEM/HAM's F12 with HEPES (Invitrogen)+0.1% protease-free BSA (assay buffer), and spun down to remove freezing media. After centrifugation, supernatant was removed and 12 mL of assay buffer was added. Coelenterazine h (Promega) was added to the cells at a final concentration of 5 uM and incubated for 4 hours at room temperature in the dark. Compound master plate-96 deep well (Corning) were formatted in a 8-point DRC in assay buffer with 0.2% DMSO at a starting concentration of 60 uM (2×). After 4 hours of incubation, cells were plated at a concentration of 5×10^5 cells/well in 96 well white-walled, tissue culture-treated, clear-bottom plates (VWR). Compounds were added to the daughter plate, and cells plus compound were incubated at room temperature for 30 minutes in the dark.
(§2) Calcium flux was measured using the FlexStation 3 (Molecular Devices). To measure the antagonist dose-response, the EC80 of Acetylcholine was injected to the daughter plate using the automated compound transfer function of the Flex Station, and the increase in luminescence was measured over time. Antagonist activity was analyzed as a concentration dependent decrease in the EC80 acetylcholine response. Dose response curves were generated using Prism (GraphPad Software). The IC50 of the compounds was calculated from the dose response curve.

[2] = molecular target: T2, M2 (Homo sapiens, UniProt P08172); experiment: In vitro functional assay of muscarinic acetylcholine receptor activity, M2
T2 sequence (P08172 1-466): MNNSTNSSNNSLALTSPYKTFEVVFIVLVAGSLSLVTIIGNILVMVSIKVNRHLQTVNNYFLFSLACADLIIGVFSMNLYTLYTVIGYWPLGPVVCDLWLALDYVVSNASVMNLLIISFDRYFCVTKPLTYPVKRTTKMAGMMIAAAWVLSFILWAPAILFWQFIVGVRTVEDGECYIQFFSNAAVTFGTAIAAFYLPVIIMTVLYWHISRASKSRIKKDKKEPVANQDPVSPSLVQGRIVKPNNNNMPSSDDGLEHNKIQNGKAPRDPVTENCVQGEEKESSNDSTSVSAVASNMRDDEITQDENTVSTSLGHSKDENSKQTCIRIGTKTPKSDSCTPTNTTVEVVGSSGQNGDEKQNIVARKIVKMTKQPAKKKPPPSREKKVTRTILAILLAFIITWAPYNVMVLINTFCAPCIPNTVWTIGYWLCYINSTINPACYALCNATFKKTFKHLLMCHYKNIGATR
Description: [The procedure below names another target; the source lists this target under the same test.] as §1, §2

[3] = molecular target: M3 (Homo sapiens, UniProt P20309); experiment: In vitro functional assay of muscarinic acetylcholine receptor activity, M3; conditions: antagonist IC50 at M3; read-out: M3 IC50
Description: [The procedure below names another target; the source lists this target under the same test.] as §1, §2

[4] = antagonist IC50 at M2, read-out: M2 IC50
[5] = CHO-K1 cells stably expressing human M1 receptor with Aequorin, decrease in EC80 acetylcholine response, read-out: M1 IC50

M3, sequence (P20309 whole entry): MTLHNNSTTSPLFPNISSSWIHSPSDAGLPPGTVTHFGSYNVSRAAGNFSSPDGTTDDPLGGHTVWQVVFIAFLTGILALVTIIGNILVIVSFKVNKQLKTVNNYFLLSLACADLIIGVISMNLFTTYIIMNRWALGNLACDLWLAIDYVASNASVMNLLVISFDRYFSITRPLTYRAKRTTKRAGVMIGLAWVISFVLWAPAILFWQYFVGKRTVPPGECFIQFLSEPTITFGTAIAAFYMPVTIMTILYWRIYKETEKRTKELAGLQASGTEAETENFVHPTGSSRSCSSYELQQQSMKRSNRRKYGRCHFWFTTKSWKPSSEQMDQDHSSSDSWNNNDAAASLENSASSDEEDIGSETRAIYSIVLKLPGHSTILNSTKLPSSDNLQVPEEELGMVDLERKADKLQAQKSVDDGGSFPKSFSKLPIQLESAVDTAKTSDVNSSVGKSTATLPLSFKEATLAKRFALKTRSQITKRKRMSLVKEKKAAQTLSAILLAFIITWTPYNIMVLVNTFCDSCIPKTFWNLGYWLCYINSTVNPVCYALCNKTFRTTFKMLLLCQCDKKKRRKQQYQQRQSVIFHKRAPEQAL

Compound | IC50 [1] | IC50 [2, 4] | IC50 [3] | IC50 [1, 5] | IC50 [2]
N#Cc1ccc(N2C3CCC2CN(C(=O)CCNCc2cccc4ncnn24)C3)nc1 [Example 33, 6-(3-{3-[({[1,2,4]triazolo[1,5-a]pyridin-5-yl}methyl)amino]propanoyl}-3,8-diazabicyclo[3.2.1]octan-8-yl)pyridine-3-carbonitrile] | < 0.1 µM | 1 to 10 µM | > 10 µM |  | 
O=C(COCCc1cccc2ncccc12)N1C[C@H]2CC[C@@H](C1)N2c1ccncc1F [Example 11, 1-((1R,5S)-8-(3-fluoropyridin-4-yl)-3,8-diazabicyclo-[3.2.1]octan-3-yl)-2-(2-(quinolin-5-yl)ethoxy)ethan-1-one] | 0.1 to 1 µM | 1 to 10 µM | > 10 µM |  | 
COc1cnc2cccc(CCCC(=O)N3CCN(c4ccncc4F)CC3)c2c1 [Example 74, 1-(4-(3-fluoropyridin-4-yl)piperazin-1-yl)-4-(3-methoxyquinolin-5-yl)butan-1-one] |  | > 10 µM | > 10 µM | 1 to 10 µM | 
N#Cc1ccc(C2CC3CCC2CN3C(=O)CCS(=O)(=O)c2cccc3ncsc23)nc1 (stereo not drawn) [Example 28, 6-[2-[3-(1,3-benzothiazole-7-sulfonyl)propanoyl]-2-azabicyclo[2.2.2]octan-5-yl]pyridine-3-carbonitrile] |  | 0.1 to 1 µM | 1 to 10 µM | < 0.1 µM | 
C[C@H]1CN(c2c[nH]c(=O)cc2Cl)CCN1C(=O)CCS(=O)(=O)c1cccc2ncsc12 [Example 26, 5-[(3S)-4-[3-(1,3-benzothiazole-7-sulfonyl)propanoyl]-3-methylpiperazin-1-yl]-4-chloro-1,2-dihydropyridin-2-one] |  | > 10 µM | > 10 µM | 0.1 to 1 µM | 
C[C@H]1CN(c2ccc(C#N)cn2)CCN1C(=O)CCS(=O)(=O)c1cccc2ncsc12 [Example 120, 6-[(3S)-4-[3-(1,3-benzothiazole-7-sulfonyl)propanoyl]-3-methylpiperazin-1-yl]pyridine-3-carbonitrile] |  | 1 to 10 µM | 1 to 10 µM | 0.1 to 1 µM | 
O=C(CCS(=O)(=O)c1cccc2nccn12)N1C[C@H]2CC[C@@H](C1)N2c1ccncc1F [Example 104, 1-((1R,5S)-8-(3-fluoropyridin-4-yl)-3,8-diazabicyclo[3.2.1]octan-3-yl)-3-(imidazo[1,2-a]pyridin-5-ylsulfonyl)propan-1-one] | < 0.1 µM | 1 to 10 µM | 1 to 10 µM |  | 
N#Cc1ccc(N2C3CCC2CN(C(=O)C(F)(F)CNCc2cccc4ncsc24)C3)nc1 [Example 158, 6-[3-(3-{[(1,3-benzothiazol-7-yl)methyl]amino}-2,2-difluoropropanoyl)-3,8-diazabicyclo[3.2.1]octan-8-yl]pyridine-3-carbonitrile] | 0.1 to 1 µM |  | 1 to 10 µM |  | 0.1 to 1 µM
COc1cnc2cccc(CNCC(=O)N3C[C@H]4CC[C@@H](C3)N4c3ccncc3F)c2c1 [Example 71, 1-((1R,5S)-8-(3-fluoropyridin-4-yl)-3,8-diazabicyclo[3.2.1]octan-3-yl)-2-(((3-methoxyquinolin-5-yl)methyl)amino)ethan-1-one] | 0.1 to 1 µM |  | 1 to 10 µM |  | 0.1 to 1 µM
O=C(COCc1cccc2ncccc12)N1C[C@H]2CC[C@@H](C1)N2c1ccc(F)cn1 [Example 1, 1-((1R,5S)-8-(5-fluoropyridin-2-yl)-3,8-diazabicyclo[3.2.1]octan-3-yl)-2-(quinolin-5-ylmethoxy)ethan-1-one] | < 0.1 µM | 1 to 10 µM | > 10 µM |  | 
C[C@@H]1CN(c2ccncc2Cl)CCN1C(=O)CCCc1cccc2ncccc12 [Example 77, (R)-1-(4-(3-chloropyridin-4-yl)-2-methylpiperazin-1-yl)-4-(quinolin-5-yl)butan-1-one] |  | 1 to 10 µM | 1 to 10 µM | < 0.1 µM | 
C[C@H]1CN(c2ccnc(N)c2)CCN1C(=O)CCS(=O)(=O)c1cccc2ncsc12 [Example 21, (S)-1-(4-(2-aminopyridin-4-yl)-2-methylpiperazin-1-yl)-3-(benzo[d]thiazol-7-ylsulfonyl)propan-1-one] |  | 0.1 to 1 µM | 1 to 10 µM | < 0.1 µM | 
Cc1ncccc1N1CCN(C(=O)CCCc2cccc3ncccc23)[C@@H](C)C1 [Example 93, (S)-1-(2-methyl-4-(2-methylpyridin-3-yl)piperazin-1-yl)-4-(quinolin-5-yl)butan-1-one] |  | > 10 µM | > 10 µM | > 10 µM | 
N#Cc1ccc(N2C3CCC2CN(C(=O)CCNCc2cccc4ncccc24)C3)nc1 [Example 155, 6-[3-(3-{[(quinolin-5-yl)methyl]amino}propanoyl)-3,8-diazabicyclo[3.2.1]octan-8-yl]pyridine-3-carbonitrile] |  | > 10 µM | > 10 µM | 1 to 10 µM | 
Cc1cc(N2C3CCC2CN(C(=O)[C@H]2C[C@H](Oc4cccc5ncsc45)C2)C3)ccn1 [Example 65, ((1r,3R)-3-(benzo[d]thiazol-7-yloxy)cyclobutyl)((1R,5S)-8-(2-methylpyridin-4-yl)-3,8-diazabicyclo[3.2.1]octan-3-yl)methanone] |  | 1 to 10 µM | > 10 µM | 1 to 10 µM | 
O=C(CCS(=O)(=O)c1cccc2ncsc12)N1CCN(c2ccc(CO)cc2)CC1 [Example 138, 3-(1,3-benzothiazole-7-sulfonyl)-1-{4-[4-(hydroxymethyl)phenyl]piperazin-1-yl}propan-1-one] |  | > 10 µM | > 10 µM | 0.1 to 1 µM | 
O=C(CCOCc1cccc2nccn12)N1C[C@H]2CC[C@@H](C1)N2c1ccncc1F [Example 12, 1-((1R,5S)-8-(3-fluoropyridin-4-yl)-3,8-diazabicyclo[3.2.1]octan-3-yl)-3-(imidazo[1,2-a]pyridin-5-ylmethoxy)propan-1-one] | 0.1 to 1 µM | 1 to 10 µM | > 10 µM |  | 
O=C(CCS(=O)(=O)c1c(F)ccc2nccn12)N1CC2CCC(C1)N2c1ccc(F)cn1 [Example 121, 3-({6-fluoroimidazo[1,2-a]pyridin-5-yl}sulfonyl)-1-[8-(5-fluoropyridin-2-yl)-3,8-diazabicyclo[3.2.1]octan-3-yl]propan-1-one] | < 0.1 µM | 0.1 to 1 µM | < 0.1 µM |  | 
N#Cc1ccc(N2C3CCC2CN(C(=O)CCN(Cc2cccc4ncsc24)C2CC2)C3)nc1 [Example 35, 6-[3-(3-{[(1,3-benzothiazol-7-yl)methyl](cyclopropyl)amino}propanoyl)-3,8-diazabicyclo[3.2.1]octan-8-yl]pyridine-3-carbonitrile] | < 0.1 µM | 0.1 to 1 µM | 0.1 to 1 µM |  | 
Cc1cc(F)cnc1N1CCN(C(=O)COCc2cccc3ncsc23)[C@@H](C)C1 [Example 88, (S)-2-(benzo[d]thiazol-7-ylmethoxy)-1-(4-(5-fluoro-3-methylpyridin-2-yl)-2-methylpiperazin-1-yl)ethan-1-one] |  | 1 to 10 µM | > 10 µM | 1 to 10 µM | 
O=C(CCNCc1cccc2ncnn12)N1CC2CCC(C1)N2c1ccc(Br)cn1 [Example 156, 1-[8-(5-bromopyridin-2-yl)-3,8-diazabicyclo[3.2.1]octan-3-yl]-3-[({[1,2,4]triazolo[1,5-a]pyridin-5-yl}methyl)amino]propan-1-one] | 0.1 to 1 µM | 1 to 10 µM | 1 to 10 µM |  | 
N#Cc1ccc(N2C3CCC2CN(C(=O)CCOCc2cccn4ncnc24)C3)nc1 [Example 42, 6-{3-[3-({[1,2,4]triazolo[1,5-a]pyridin-8-yl}methoxy)propanoyl]-3,8-diazabicyclo[3.2.1]octan-8-yl}pyridine-3-carbonitrile] | < 0.1 µM | 1 to 10 µM | 1 to 10 µM |  | 
